Results reported in publication PMC5506657, “Improvement in phosphate acquisition and utilization by a secretory purple acid phosphatase (OsPAP21b) in rice” (Plant Biotechnology Journal, 2017).

What was measured:
[1] = test system: OsPAP21b; experiment: released Pi by vanadomolybdate; Lineweaver-Burk; format: biochemical, Oryza sativa; details: 5 mM MgCl2, 50 mM sodium acetate pH 5.0, 37 °C; 0.1-100 mM substrate
[2] = test system: OsPAP21b; details: 10 mM pNPP; 0 to 25 mM NaH2PO4; 5 mM MgCl2, 50 mM sodium acetate pH 5.0, 37 °C; reaction product as inhibitor

SMILES	Km [1]	IC50 [2]
Nc1ncnc2c1ncn2[C@@H]1O[C@H](COP(=O)(O)OP(=O)(O)O)[C@@H](O)[C@H]1O [ADP]	77 ± 4 µM	–
O=P(O)(O)O [Pi]	–	5.09 ± 1.34 mM
O=[N+]([O-])c1ccc(OP(=O)(O)O)cc1 [pNPP]	90 ± 10 µM	–
